Results on one compound are retold here after patent US20160045487A1, “COMPOSITIONS AND METHODS FOR TREATING NEUROPATHY” (CHILDEREN'S MEDICAL CENTER CORPORATION, priority 2013, published 2016).

The structures appear in SMILES notation.

Common to all, as to assay type: in vivo, mouse
Experiment [1] concerns GFAP-DN-erbB4 mice. As to the kind of experiment: Hot plate (54° C.) thermal nociception test, GFAP-DN-erbB4 small fiber neuropathy model. The protocol: As a first test, a cream containing XIB4035 (1.5 mM) was applied directly to the hind paws of GFAP-DN-erbB4 and wild type mice twice daily for a period of 4 weeks starting prior to symptom onset (P21). Mice of both genotypes were also treated with the base cream containing no drug for control. Mice were tested for responses to a noxious thermal stimulus prior to the initiation of treatment and every 7 days for the duration of the experiment.
(§1) However, in the clinic, therapy would almost certainly begin after patients present with symptoms of SFN. Therefore, it was determined whether topical XIB4035 can act as a disease-modifying agent in the GFAP-DN-erbB4 neuropathy model starting after animals are clearly symptomatic (P28). […] While IB4 labeling in mutant mice was lower than wild types regardless of treatment, IB4 signal was clearly present in mutant mice treated with XIB4035 while absent in those treated with control cream (FIG. 3D; 83% of XIB4035 treated mice (n=6) with IB4+ lamina II terminals vs 0% (n=4) in control treated mice) (FIG. 3D).
Transgenic mouse lines used were as previously described (Lacomis et al., Muscle Nerve 26, 173-188 (2002); Comblath et al., Current opinion in Neurology 19, 446-450 (2006)). Animals were kept in the animal facility with free access to food and water. Behavioral experiments were performed in a quiet environment at the same time of day. The hot plate test was performed using a “controlled hot-plate analgesia meter” (Columbus Instruments) heated to 54° C. Paw withdrawal latency was measured as the time required for the mouse to visibly respond to the thermal stimulus, e.g. licking paws, shaking paws, or jumping off of the plate.
The cream containing XIB4035 (1.5 mM, ZereneX Molecular Ltd., Manchester, UK) consisted of N-methyl-pyrrolidone (6.25%), isopropyl myristate (6.25%) and petroleum jelly (87.5%). Control cream had the same ingredients without XIB4035. Cream was applied twice daily to the hind paws of mice starting at P21 for a period of 4 weeks for prophylactic treatment of GFAP-DN-erbB4. […]

Experiment [2] has as its system GFAP-DN-erbB4 mice. As to the kind of experiment: IB4 staining of C-fiber terminals in lamina II of spinal cord dorsal horn. To be noted: cream P28-P35; n=6. The protocol: as §1
Spinal cords were collected from mice anesthetized with 2.5% Avertin, immersion fixed in 4% paraformaldehyde in 0.1 M phosphate buffer (pH 7.4) for 2 hours at 4° C., and cryoprotected in 20% sucrose overnight at 4° C. Tissue was embedded in OCT, sectioned at 15 μm, and stained mounted on slides. Tissue was blocked for 30 minutes in 0.1M PB+0.3% Triton-X 100+10% normal goat serum and incubated with TrpV1 rabbit polyclonal antibody (AbCAM, 1:2000) and Alexa-488 conjugated isolectin-B4 overnight at 4° C. Sections were washed 3 times for 30 minutes in 0.1M PB+0.3% Triton-X 100+10% normal goat serum followed by incubation with goat anti-rabbit Alexa-594 (Invitrogen) 1:1000 for 1 hour at room temperature.
Spinal cord images were acquired using a Zeiss Axioscope microscope. […]

For experiment [3], the system named is GFAP-DN-erbB4 mice. As to the kind of experiment: PGP9.5-positive IENF density in hind paw skin. The note with it: treatment initiated after disease onset (P28), read at P35. The protocol:
as §1
Mice were anesthetized with 2.5% Avertin. Hind paws were removed, immersion fixed in 2% paraformaldehyde, 14% picric acid in 0.1 M phosphate buffer (pH 7.4) overnight at 4° C., and cryoprotected in 20% sucrose overnight at 4° C. Footpad skin was dissected from hind paws, embedded in OCT, sectioned at 30 μm, and stained as floating sections. […]
Skin section images were acquired as 30 μm Z-stacks (1 μm intervals) and processed as maximum intensity projections using a Zeiss LSM 700 microscope and ZEN software. […] A measured line was drawn using the DAPI channel to delineate the border between basal keratinocytes and outer layers of the epidermis. All PGP9.5 positive IENFs crossing the border were counted and expressed as a number per 100 μm length. […]

For the compound `CCN(CC)CCCC(C)Nc1cc(/C=C/c2ccccc2Cl)nc2cc(Cl)ccc12` (centres unmarked) [XIB4035, N4-{7-chloro-2-[(E)-2-(2-chloro-phenyl)-vinyl]-quinolin-4-yl}-N1,N1-diethyl-pentane-1,4-diamine], the “reaction times to noxious thermal stimulus (thermal nociception)” value in the experiment on GFAP-DN-erbB4 mice [1] (prophylactic, cream 1.5 mM on hind paws twice daily, 4 weeks from P21, 54° C. hot plate) is “indistinguishable from wild type animals”. Also, the “neuropathic symptoms (thermal nociception)” value in the experiment with GFAP-DN-erbB4 mice [1] (therapeutic, treatment started after onset (P28), read one week later (P35), persisted with continued treatment) is recorded as “significant reduction in symptoms”. Besides, in the experiment with GFAP-DN-erbB4 mice [1] (treatment initiated at P28, interrupted at P35), the “neuropathic symptoms after interruption of treatment” value is “neuropathic symptoms reappeared one week later”. Besides, in the experiment on GFAP-DN-erbB4 mice [2], the “treated mice with IB4+ lamina II terminals” value is 83%. Moreover, the “IENF density in hind paw skin” value in the experiment on GFAP-DN-erbB4 mice [3] is reported as “did not rescue IENF density”.
